In patent publication US20190224202A1, “STABLE LIQUID FORMULATIONS OF PEMETREXED” (LEIUTIS PHARMACEUTICALS PVT. LTD., priority 2015, published 2019):

How the values were obtained:
[1] = Solubility study of Pemetrexed diacid in various amino acids in water; type: physicochemical; conditions: 25° C.
Procedure: Solubility studies of Pemetrexed were performed with various amino acids alone and in combination with other excipients in water at 25° C. to check the solubility.

[2] = Solubility of Pemetrexed diacid in water (statement); type: physicochemical

Description (solubility study) ([1]; Pemetrexed diacid 50 mg, Arginine 116 mg, Water 1 ml): Clear | Description (solubility study) ([1]; Pemetrexed diacid 50 mg, Arginine 133 mg, Water 1 ml): Clear | Description (solubility study) ([1]; Pemetrexed diacid 50 mg, Arginine 166 mg, Water 1 ml): Clear | Description (solubility study) ([1]; Pemetrexed diacid 100 mg, Histidine 100 mg, Glycine 50 mg, Ammonium acetate 100 mg, Sucrose 50 mg, Water 2.5 ml): Clear | Description (solubility study) ([1]; Pemetrexed diacid 100 mg, Histidine 100 mg, Glycine 50 mg, Ammonium acetate 100 mg, Water 2.5 ml): Clear | Description (solubility study) ([1]; Pemetrexed diacid 100 mg, Histidine 100 mg, Glycine 100 mg, Ammonium acetate 100 mg, Sucrose 50 mg, Water 2.5 ml): Clear | Description (solubility study) ([1]; Pemetrexed diacid 100 mg, Histidine 100 mg, Glycine 100 mg, Ammonium acetate 100 mg, Water 2.5 ml): Clear | Description (solubility study) ([1]; Pemetrexed diacid 100 mg, Histidine 100 mg, Glycine 100 mg, Sucrose 50 mg, Water 2.5 ml): Clear | Description (solubility study) ([1]; Pemetrexed diacid 100 mg, Histidine 100 mg, Glycine 100 mg, Water 2.5 ml): Clear | Description (solubility study) ([1]; Pemetrexed diacid 100 mg, Histidine 100 mg, Glycine 200 mg, Ammonium acetate 100 mg, Sucrose 50 mg, Water 2.5 ml): Clear | Description (solubility study) ([1]; Pemetrexed diacid 100 mg, Histidine 100 mg, Glycine 200 mg, Ammonium acetate 100 mg, Water 2.5 ml): Clear | Solubility in water [2]: practically insoluble
SMILES: Nc1nc2[nH]cc(CCc3ccc(C(=O)N[C@@H](CCC(=O)O)C(=O)O)cc3)c2c(=O)[nH]1 [Pemetrexed diacid, N-{4-[2-(2-Amino-4-oxo-4,7-dihydro-1H-pyrrolo[2,3-d]pyrimidin-5-yl)ethyl]benzoyl}-L-glutamic acid]
